According to patent US20250367109A1, “DEVICES, SYSTEMS, AND METHODS FOR IMPROVED BONE REMODELING” (UNIVERSITY OF UTAH RESEARCH FOUNDATION, priority 2024, published 2025):

Test: local elution of estradiol from implant in left proximal humerus; estradiol concentration in tendon tissue samples by mass spectroscopy
Type: in vivo, wild-type rats
Settings: one week after implantation into left proximal humerus; compared with right rotator cuff, left and right Achilles tendon; 200 micrograms estradiol load
Description: Drug-eluting implants analogous to drug-eluting implant 200 were comprised of polycaprolactone and estradiol. The drug-eluting implants were in the form of a cylinder 1 mm in diameter and 5 mm long, and loaded with 200 micrograms of estradiol. The drug-eluting implants were implanted into the left proximal humeri of wild-type rats. One week following implantation, the animals were euthanized and tendon tissue samples were collected at the following sites: left rotator cuff (target site), right rotator cuff, left Achilles tendon, and right Achilles tendon. Mass spectroscopy was used to determine the estradiol concentration in the tissue samples, and the results are provided in an estradiol concentration chart 300.

C[C@]12CC[C@@H]3c4ccc(O)cc4CC[C@H]3[C@@H]1CC[C@@H]2O [estradiol]
estradiol concentration in left rotator cuff tissue (target site) relative to remote tendon sites: significantly higher local estradiol concentrations at the target region relative to other regions
